Active and inactive are the calls of the source. How the calls were made is not given here.
Test system: rodent lifetime carcinogenesis bioassay, tumor incidence TD50
Experiment: chronic cancer bioassays in animals – CPDB, compiled studies (AID 1745844)

O=C1NS(=O)(=O)c2ccccc21
TD50 (monkey, strain Rhesus [Macaca mulatta], both sexes, in feed, site: any site (literature study), lesion: malignant tumor, dosed 1221 weeks, study length 1221 weeks): 610 mg/kg/day | TD50 (monkey, strain Rhesus [Macaca mulatta], both sexes, in feed, site: thyroid gland, lesion: lymphoma, dosed 1221 weeks, study length 1221 weeks): 43.3 mg/kg/day | TD50 (mouse, strain CD-1 HaM/ICR, females, in feed, site: any site (literature study), lesion: several types, types named in the paper, dosed 104 weeks, study length 104 weeks): 26100 mg/kg/day (inactive) | carcinogen call (mouse, strain CD-1 HaM/ICR, females, in feed, site: liver, lesion: one or several types, types not named, dosed 104 weeks, study length 104 weeks): negative (inactive) | carcinogen call (mouse, strain CD-1 HaM/ICR, females, in feed, site: lung, lesion: one or several types, types not named, dosed 104 weeks, study length 104 weeks): negative (inactive) | TD50 (mouse, strain CD-1 HaM/ICR, males, in feed, site: any site (literature study), lesion: several types, types named in the paper, dosed 104 weeks, study length 104 weeks): 881 mg/kg/day (inactive) | carcinogen call (mouse, strain CD-1 HaM/ICR, males, in feed, site: liver, lesion: hepatoma, dosed 104 weeks, study length 104 weeks): negative (inactive) | TD50 (mouse, strain CD-1 HaM/ICR, males, in feed, site: lung, lesion: one or several types, types not named, dosed 104 weeks, study length 104 weeks): 1360 mg/kg/day (inactive) | carcinogen call (mouse, strain Swiss albino, females, in feed, site: liver, lesion: hepatoma, dosed 76 weeks, study length 76 weeks): negative (inactive) | TD50 (mouse, strain Swiss albino, females, in feed, site: lung, lesion: one or several types, types not named, dosed 76 weeks, study length 76 weeks): 56300 mg/kg/day (inactive) | carcinogen call (mouse, strain Swiss, females, in feed, site: urinary bladder, lesion: anaplastic carcinoma, dosed 91 weeks, study length 91 weeks): negative (inactive) | carcinogen call (mouse, strain Swiss, males, in feed, site: urinary bladder, lesion: transitional-cell carcinoma, dosed 91 weeks, study length 91 weeks): negative (inactive) | TD50 (rat, strain ACI, males, in feed, site: urinary bladder, lesion: papilloma, dosed 52 weeks, study length 52 weeks): 1110 mg/kg/day | TD50 (rat, strain ACI, males, in feed, site: urinary bladder, lesion: transitional-cell carcinoma, dosed 52 weeks, study length 52 weeks): 3710 mg/kg/day | carcinogen call (rat, strain Analbuminaemic (Sprague-Dawley derived), males, in feed, site: urinary bladder, lesion: carcinoma, dosed 80 weeks, study length 80 weeks): negative (inactive) | TD50 (rat, strain Charles River CD (Sprague-Dawley), females, in feed, site: liver, lesion: biliary cystadenoma, dosed 142 weeks, study length 142 weeks): 155000 mg/kg/day | TD50 (rat, strain Charles River CD (Sprague-Dawley), females, in feed, site: liver, lesion: cholangiocarcinoma, dosed 113 weeks, study length 113 weeks): 78200 mg/kg/day (inactive) | TD50 (rat, strain Charles River CD (Sprague-Dawley), females, in feed, site: liver, lesion: neoplastic nodule, dosed 142 weeks, study length 142 weeks): 155000 mg/kg/day | TD50 (rat, strain Charles River CD (Sprague-Dawley), females, in feed, site: liver, lesion: nodular hyperplasia, dosed 113 weeks, study length 113 weeks): 98400 mg/kg/day (inactive) | carcinogen call (rat, strain Charles River CD (Sprague-Dawley), males, in feed, site: any site (literature study), lesion: several types, types named in the paper, dosed 104 weeks, study length 104 weeks): negative (inactive) | TD50 (rat, strain Charles River CD (Sprague-Dawley), males, in feed, site: liver, lesion: biliary cystadenoma, dosed 142 weeks, study length 142 weeks): 60000 mg/kg/day | carcinogen call (rat, strain Charles River CD (Sprague-Dawley), males, in feed, site: liver, lesion: hepatocellular carcinoma, dosed 113 weeks, study length 113 weeks): negative (inactive) | TD50 (rat, strain Charles River CD (Sprague-Dawley), males, in feed, site: parathyroid, lesion: adenoma, dosed 142 weeks, study length 142 weeks): 23200 mg/kg/day | TD50 (rat, strain Charles River CD (Sprague-Dawley), males, in feed, site: urinary bladder, lesion: transitional-cell carcinoma, dosed 142 weeks, study length 142 weeks): 31100 mg/kg/day | TD50 (rat, strain Charles River CD (Sprague-Dawley), males, in feed, site: urinary bladder, lesion: transitional-cell papilloma, dosed 142 weeks, study length 142 weeks): 30800 mg/kg/day | carcinogen call (rat, strain Fischer 344, males, in feed, site: forestomach, lesion: papilloma, dosed 72 weeks, study length 73 weeks): negative (inactive) | carcinogen call (rat, strain Fischer 344, males, in feed, site: urinary bladder, lesion: carcinoma, dosed 72 weeks, study length 73 weeks): negative (inactive) | carcinogen call (rat, strain Fischer 344, males, in feed, site: urinary bladder, lesion: one or several types, types not named, dosed 52 weeks, study length 52 weeks): negative (inactive) | carcinogen call (rat, strain Fischer 344, males, in feed, site: urinary bladder, lesion: one or several types, types not named, dosed 72 weeks, study length 72 weeks): negative (inactive) | carcinogen call (rat, strain Fischer 344, males, in feed, site: urinary bladder, lesion: one or several types, types not named, dosed 102 weeks, study length 104 weeks): negative (inactive) | carcinogen call (rat, strain Fischer 344, males, in feed, site: urinary bladder, lesion: one or several types, types not named, dosed 104 weeks, study length 104 weeks): negative (inactive) | TD50 (rat, strain Fischer 344, males, in feed, site: urinary bladder, lesion: papilloma, dosed 104 weeks, study length 104 weeks): 54100 mg/kg/day | TD50 (rat, strain Fischer, males, in feed, site: testis, lesion: interstitial-cell tumor, dosed 77 weeks, study length 98 weeks): 613 mg/kg/day | carcinogen call (rat, strain Fischer, males, in feed, site: urinary bladder, lesion: several types, types named in the paper, dosed 100 weeks, study length 104 weeks): negative (inactive) | TD50 (rat, strain Sprague-Dawley, both sexes, in feed, site: any site (literature study), lesion: malignant tumor, dosed 130 weeks, study length 130 weeks): 4100 mg/kg/day (inactive) | carcinogen call (rat, strain Sprague-Dawley, both sexes, in feed, site: urinary bladder, lesion: one or several types, types not named, dosed 130 weeks, study length 130 weeks): negative (inactive) | carcinogen call (rat, strain Sprague-Dawley, males, in feed, site: urinary bladder, lesion: carcinoma, dosed 80 weeks, study length 80 weeks): negative (inactive) | carcinogen call (rat, strain Sprague-Dawley, males, in feed, site: urinary bladder, lesion: one or several types, types not named, dosed 52 weeks, study length 52 weeks): negative (inactive) | TD50 (rat, strain Wistar, both sexes, in feed, site: urinary bladder, lesion: one or several types, types not named, dosed 104 weeks, study length 104 weeks): 125000 mg/kg/day | carcinogen call (rat, strain Wistar, males, in feed, site: urinary bladder, lesion: one or several types, types not named, dosed 52 weeks, study length 52 weeks): negative (inactive)

O=NN1CCCN(N=O)C1
TD50 (rat, strain Sprague-Dawley, males, i.p., site: paranasal sinus, lesion: squamous-cell carcinoma, dosed 104 weeks, study length 104 weeks): 0.166 mg/kg/day

CC(C)(CCCOc1ccc(OCCCC(C)(C)C(=O)O)c(-c2ccccc2)c1)C(=O)O
TD50 (mouse, strain B6C3F1, females, in feed, site: liver, lesion: hepatocellular adenoma, dosed 104 weeks, study length 104 weeks): 90.6 mg/kg/day | TD50 (mouse, strain B6C3F1, females, in feed, site: liver, lesion: hepatocellular carcinoma, dosed 104 weeks, study length 104 weeks): 402 mg/kg/day | TD50 (mouse, strain B6C3F1, females, in feed, site: liver, lesion: several types, types named in the paper, dosed 104 weeks, study length 104 weeks): 72.3 mg/kg/day | TD50 (mouse, strain B6C3F1, males, in feed, site: liver, lesion: hepatocellular adenoma, dosed 104 weeks, study length 104 weeks): 107 mg/kg/day | TD50 (mouse, strain B6C3F1, males, in feed, site: liver, lesion: hepatocellular carcinoma, dosed 104 weeks, study length 104 weeks): 167 mg/kg/day | TD50 (mouse, strain B6C3F1, males, in feed, site: liver, lesion: several types, types named in the paper, dosed 104 weeks, study length 104 weeks): 45 mg/kg/day

CCCCNNCCCC
TD50 (mouse, strain Swiss albino, females, in drinking water, site: all sites, lesion: malignant lymphoma, dosed 93 weeks, study length 93 weeks): 198 mg/kg/day | carcinogen call (mouse, strain Swiss albino, females, in drinking water, site: liver, lesion: angioma, dosed 93 weeks, study length 93 weeks): negative (inactive) | carcinogen call (mouse, strain Swiss albino, females, in drinking water, site: liver, lesion: angiosarcoma, dosed 93 weeks, study length 93 weeks): negative (inactive) | TD50 (mouse, strain Swiss albino, females, in drinking water, site: lung, lesion: several types, types named in the paper, dosed 93 weeks, study length 93 weeks): 69.8 mg/kg/day | TD50 (mouse, strain Swiss albino, males, in drinking water, site: all sites, lesion: malignant lymphoma, dosed 87 weeks, study length 87 weeks): 886 mg/kg/day | TD50 (mouse, strain Swiss albino, males, in drinking water, site: kidney, lesion: several types, types named in the paper, dosed 87 weeks, study length 87 weeks): 449 mg/kg/day | carcinogen call (mouse, strain Swiss albino, males, in drinking water, site: liver, lesion: angioma, dosed 87 weeks, study length 87 weeks): negative (inactive) | carcinogen call (mouse, strain Swiss albino, males, in drinking water, site: liver, lesion: angiosarcoma, dosed 87 weeks, study length 87 weeks): negative (inactive) | TD50 (mouse, strain Swiss albino, males, in drinking water, site: lung, lesion: several types, types named in the paper, dosed 87 weeks, study length 87 weeks): 34.5 mg/kg/day

From PubChem BioAssay AID1745844 (Carcinogenic Potency Database (CPDB), 2022)
